Patent US20240270715A1, “INHIBITORS OF TRANSGLUTAMINASES” (ZEDIRA GMBH, priority 2021, published 2024)

Legend:
[1] = Log D by shake flask method (octanol / PBS pH 7.4, HPLC); type: physicochemical; settings: octanol / PBS pH 7.4, shake flask; read-out: logD
Protocol: In order to classify the inventive compounds according to their lipophilicity, Log D values (distribution coefficient) were determined by means of the well-established shake flask method, measuring the partition of a compound between an octanol and phosphate-buffered saline (PBS, pH 7.4) by HPLC.
Compounds with a moderate lipophilicity (Log D values from 0 to 3) are usually advantaged for oral absorption, being in balance between solubility and permeability. However, sophisticated formulation of a compound might improve oral bioavailability for highly lipophilic compounds.

[2] = target: T1, recombinant human transglutaminase 2 (Homo sapiens, UniProt P21980); assay: Transglutaminase assay: incorporation of dansylcadaverine into dimethylcasein (DCC-assay); type: biochemical; settings: recombinant human TG2 10 nM, dansylcadaverine/dimethylcasein; read-out: IC50 TG2
T1 sequence (P21980 1-687): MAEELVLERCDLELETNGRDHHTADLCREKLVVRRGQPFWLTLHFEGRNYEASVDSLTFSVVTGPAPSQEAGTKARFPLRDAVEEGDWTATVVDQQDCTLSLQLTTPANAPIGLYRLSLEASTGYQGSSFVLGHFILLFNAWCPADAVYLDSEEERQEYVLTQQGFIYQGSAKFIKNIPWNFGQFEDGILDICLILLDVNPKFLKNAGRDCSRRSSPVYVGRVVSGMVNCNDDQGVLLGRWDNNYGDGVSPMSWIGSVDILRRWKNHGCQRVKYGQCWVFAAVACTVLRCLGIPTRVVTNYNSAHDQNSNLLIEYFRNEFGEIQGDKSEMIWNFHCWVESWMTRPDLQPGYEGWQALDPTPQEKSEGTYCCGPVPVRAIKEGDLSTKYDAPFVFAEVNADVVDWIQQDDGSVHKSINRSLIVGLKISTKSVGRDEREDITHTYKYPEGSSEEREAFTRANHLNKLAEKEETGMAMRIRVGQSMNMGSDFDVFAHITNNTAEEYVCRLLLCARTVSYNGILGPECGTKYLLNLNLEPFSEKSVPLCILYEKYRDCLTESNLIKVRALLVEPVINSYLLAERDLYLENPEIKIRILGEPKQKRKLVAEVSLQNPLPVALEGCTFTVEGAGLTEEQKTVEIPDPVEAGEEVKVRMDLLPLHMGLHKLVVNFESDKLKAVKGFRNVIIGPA
Protocol: To illustrate the advantage of branched alkyl moieties over aromatic moieties, we refer to reference compounds Ref. 2 (ZED1227, U.S. Pat. No. 9,434,763 B2) and Ref. 3 (A8, ZED1047). Inhibition data were determined using the classical fluorescent transamidation assay (dansylcadaverine incorporation into methylated casein, DCC-assay) as described [Büchold, C.; Hils, M.; Gerlach, U.; Weber, J.; Pelzer, C.; Heil, A.; Aeschlimann, D.; Pasternack, R. Features of ZED1227: The First-In-Class Tissue Transglutaminase Inhibitor Undergoing Clinical Evaluation for the Treatment of Celiac Disease. Cells 2022, 11, 1667. https://doi.org/10.3390/cells11101667]. Casein is one of the best known high molecular weight (24 kDa) protein substrates for transglutaminases. Please note, the IC50 value of Ref. 3 (A8) published in U.S. Pat. No. 9,434,763 B2 cannot be compared to the present data, relying on a fluorogenic isopeptidase assay.
To this extent, inhibition data were determined using the classical fluorescent transamidation assay (dansylcadaverine incorporation into methylated casein, DCC-assay) as described in Büchold et al. [Büchold, C.; Hils, M.; Gerlach, U.; Weber, J.; Pelzer, C.; Heil, A.; Aeschlimann, D.; Pasternack, R. Features of ZED1227: The First-In-Class Tissue Transglutaminase Inhibitor Undergoing Clinical Evaluation for the Treatment of Celiac Disease. Cells 2022, 11, 1667. https://doi.org/10.3390/cells11101667]. Casein is one of the best known high molecular weight (24 kDa) protein substrates for transglutaminases. Inhibition data of the inventive compounds was compared with inhibition of compounds disclosed in U.S. Pat. No. 9,434,763 B2, particularly, compound A8, which is denoted herein as Reference 3. It is noteworthy that the IC50 values of compounds A8 published in U.S. Pat. No. 9,434,763 B2 and E16 from U.S. Pat. No. 11,072,634 B2 cannot be compared to the present data, relying on a fluorogenic isopeptidase assay.
For the determination of potency of inhibitors against tissue transglutaminase, the incorporation of dansylcadaverine into dimethylcasein (Zedira product T036, Lorand et al., Anal Biochem, 1971, 44:221-31) was measured using recombinant human transglutaminase 2 (Zedira Product T022).
The tissue transglutaminase is diluted in buffer (50 mM Tris-HCl, 7.5 mM CaCl2, 150 mM NaCl, pH=7.4). The final concentration of TG2 in the assay is 10 nM.
A 10 mM inhibitor stock solution is prepared in DMSO, and from this a serial 1:2-fold dilution series is prepared also in DMSO. Each of the initial dilutions is subsequently diluted 1:50-fold with buffer (50 mM Tris-HCl, 7.5 mM CaCl2, 150 mM NaCl, pH=7.4) to yield the final working dilutions containing 2% (v/v) DMSO. 15 μl of inhibitor working dilution are added per well of a 96 well microtiter plate. As control, 15 μl of a 2% (v/v) DMSO solution prepared using the buffer mentioned above are added per well.
Immediately before starting the assay, 600 μl transglutaminase working solution are added to 11.4 ml assay buffer (50 mM Tris-HCl, 10 mM CaCl2, 10 mM glutathione, 2.5% glycerol, 16.7 μM dansylcadaverine, 4 μM N,N-dimethylcasein, 200 mM NaCl, pH=8.0). 285 μl of this reaction mix are added per well containing the inhibitor.
Increase in fluorescence is measured using λex=330 nm and λemG=500 nm at […] for 30 min. A slope of the increase in fluorescence between 20 and 30 min is calculated for determination of the IC50 value (inhibitor concentration at which 50% of the initial activity is blocked).
Analysis of enzymatic activity is performed by calculation of the slope of an increase in fluorescence intensity. IC50 values are calculated by plotting the enzymatic activity (as percentage from control containing 2% DMSO instead of inhibitor) against the inhibitor concentration. IC50 is defined as the inhibitor concentration blocking 50% of initial enzyme activity.

[3] = Caco-2 permeability assay (CacoReady kit); type: in vitro ADME; settings: human
Protocol: Permeability coefficients (Papp values) were obtained from Caco-2 barrier studies predicting oral/intestinal bioavailability of the tested compounds. The assays were performed by using CacoReady™ ready-to-use kits from ReadyCell according to the manufacturers protocol.

Row | logD [1] | IC50 [2] [nM] | Papp [3] [×10⁻⁶ cm/s] | SMILES
1 | 3 to 5 | < 150 | 1 to 10 | CCNC(=O)C(=O)CC[C@H](NC(=O)c1cc2ccccc2o1)C(=O)Nc1cccn(CC(=O)NC2C3CC4CC(C3)CC2C4)c1=O (stereo partly drawn) [Compound I-30, (S)-2-(benzofuran-2-carboxamido)-N6-ethyl-N1-(1-(2-(2-adamantylamino)-2-oxoethyl)-2-oxo-1,2-dihydropyridin-3-yl)-5-oxohexanediamide]
2 | 3 to 5 | < 150 | 1 to 10 | CCNC(=O)C(=O)CC[C@H](NC(=O)c1oc2ccccc2c1C)C(=O)Nc1cccn(CC(=O)NC2C3CC4CC(C3)CC2C4)c1=O (stereo partly drawn) [Compound I-31, (S)-N1-ethyl-N6-(1-(2-(2-adamantylamino)-2-oxoethyl)-2-oxo-1,2-dihydropyridin-3-yl)-5-(3-methylbenzofuran-2-carboxamido)-2-oxohexanediamide]
3 | 3 to 5 | < 150 | 1 to 10 | CCNC(=O)C(=O)CC[C@H](NC(=O)c1oc2ccccc2c1Cl)C(=O)Nc1cccn(CC(=O)NC2C3CC4CC(C3)CC2C4)c1=O (stereo partly drawn) [Compound I-32, (S)-2-(3-chlorobenzofuran-2-carboxamido)-N6-ethyl-N1-(1-(2-(2-adamantylamino)-2-oxoethyl)-2-oxo-1,2-dihydropyridin-3-yl)-5-oxohexanediamide]
4 | 3 to 5 | < 150 | 1 to 10 | CCNC(=O)C(=O)CC[C@H](NC(=O)c1cc2c(Br)cccc2o1)C(=O)Nc1cccn(CC(=O)NC2C3CC4CC(C3)CC2C4)c1=O (stereo partly drawn) [Compound I-33, (S)-2-(4-bromobenzofuran-2-carboxamido)-N6-ethyl-N1-(1-(2-(2-adamantylamino)-2-oxoethyl)-2-oxo-1,2-dihydropyridin-3-yl)-5-oxohexanediamide]
5 | 3 to 5 | < 150 | 1 to 10 | CCNC(=O)C(=O)CC[C@H](NC(=O)c1cc2ccccc2s1)C(=O)Nc1cccn(CC(=O)NC2C3CC4CC(C3)CC2C4)c1=O (stereo partly drawn) [Compound I-34, (S)-2-(benzo[b]thiophene-2-carboxamido)-N6-ethyl-N1-(1-(2-(2-adamantylamino)-2-oxoethyl)-2-oxo-1,2-dihydropyridin-3-yl)-5-oxohexanediamide]
6 | 3 to 5 | < 150 | 1 to 10 | CCNC(=O)C(=O)CC[C@H](NC(=O)c1cc2cccc(F)c2s1)C(=O)Nc1cccn(CC(=O)NC2C3CC4CC(C3)CC2C4)c1=O (stereo partly drawn) [Compound I-35, (S)-N1-ethyl-5-(7-fluorobenzo[b]thiophene-2-carboxamido)-N6-(1-(2-(2-adamantylamino)-2-oxoethyl)-2-oxo-1,2-dihydropyridin-3-yl)-2-oxohexanediamide]
7 | 3 to 5 | < 150 | 1 to 10 | CCNC(=O)C(=O)CC[C@H](NC(=O)c1cc2c(F)c(F)ccc2[nH]1)C(=O)Nc1cccn(CC(=O)NC2C3CC4CC(C3)CC2C4)c1=O (stereo partly drawn) [Compound I-36, (S)-2-(4,5-difluoro-1H-indole-2-carboxamido)-N6-ethyl-N1-(1-(2-(2-adamantylamino)-2-oxoethyl)-2-oxo-1,2-dihydropyridin-3-yl)-5-oxohexanediamide]

The remaining lines, values behind:

Row | SMILES | logD [1] | IC50 [2] [nM] | Papp [3] [×10⁻⁶ cm/s]
8 | CCNC(=O)C(=O)CC[C@H](NC(=O)c1cncn1C)C(=O)Nc1cccn(CC(=O)NC23CC4CC(CC(C)(C4)C2)C3)c1=O [Compound I-25, (S)-N1-ethyl-N6-(1-(2-(3-methyladamantane-1-amino)-2-oxoethyl)-2-oxo-1,2-dihydropyridin-3-yl)-5-(1-methyl-1H-imidazole-5-carboxamido)-2-oxohexanediamide] | 1 to 3 | 150 to 600 | < 1
9 | CCNC(=O)C(=O)CC[C@H](NC(=O)c1cnc(Cl)n1C)C(=O)Nc1cccn(CC(=O)NC23CC4CC(C)(CC(C)(C4)C2)C3)c1=O [Compound I-26, (S)-2-(2-chloro-1-methyl-1H-imidazole-5-carboxamido)-N6-ethyl-N1-(1-(2-(3,5-dimethyladamantane-1-amino)-2-oxoethyl)-2-oxo-1,2-dihydropyridin-3-yl)-5-oxohexanediamide] | 1 to 3 | 150 to 600 | < 1
10 | CCNC(=O)C(=O)CC[C@H](NC(=O)c1cnc(C)n1C)C(=O)Nc1cccn(CC(=O)NC23CC4CC(CC(C)(C4)C2)C3)c1=O [Compound I-27, (S)-2-(1,2-dimethyl-1H-imidazole-5-carboxamido)-N6-ethyl-N1-(1-(2-(3-methyladamantane-1-amino)-2-oxoethyl)-2-oxo-1,2-dihydropyridin-3-yl)-5-oxohexanediamide] | 1 to 3 | 600 to 3500 | < 1
11 | CCNC(=O)C(=O)CC[C@H](NC(=O)c1cncn1C)C(=O)Nc1cccn(CC(=O)NC23CC4(C)CC(C)(CC(C)(C4)C2)C3)c1=O [Compound I-28, (S)-N1-ethyl-N6-(1-(2-(3,5,7-trimethyl-1-adamantylamino)-2-oxoethyl)-2-oxo-1,2-dihydropyridin-3-yl)-5-(1-methyl-1H-imidazole-5-carboxamido)-2-oxohexanediamide] | 1 to 3 | < 150 | < 1
12 | CCNC(=O)C(=O)CC[C@H](NC(=O)c1cnc(Cl)n1C)C(=O)Nc1cccn(CC(=O)NC23CC4(C)CC(C)(CC(C)(C4)C2)C3)c1=O [Compound I-29, (S)-2-(2-chloro-1-methyl-1H-imidazole-5-carboxamido)-N6-ethyl-N1-(1-(2-(3,5,7-trimethyl-1-adamantylamino)-2-oxoethyl)-2-oxo-1,2-dihydropyridin-3-yl)-5-oxohexanediamide] | 1 to 3 | < 150 | < 1
